Test results published in patent US20240174690A1, “ANNULATED 2-AMINO-3-CYANO THIOPHENES AND DERIVATIVES FOR THE TREATMENT OF CANCER” (BOEHRINGER INGELHEIM INTERNATIONAL GMBH, priority 2021, published 2024).
pIC50: −log10 of the molar value. In brackets after ≈: the same amount, converted by molar mass. Like-named read-outs stand apart in the source and are kept apart here.

Tests used:
[1] = test system: KRAS G12C-dependent Ba/F3 cells; test: Ba/F3 proliferation assay, KRAS G12C; assay type: cell-based; conditions: Mus musculus, BaF3, 72 h, AlamarBlue
Summary of the method: (§1)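 IL-3-independent Ba/F3 lines driven by transduced KRAS G12C, G12D or G12V, with puromycin withdrawn about ten days before testing. Viability after compound treatment measured by AlamarBlue fluorescence in duplicate, and values derived by curve fitting.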

[2] = test system: KRAS G12V-dependent Ba/F3 cells; test: Ba/F3 proliferation assay, KRAS G12V; assay type: cell-based; conditions: Mus musculus, BaF3, 72 h, AlamarBlue;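 also: proliferation IC50 in KRAS G12V-dependent Ba/F3 cells read by AlamarBlue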
Summary of the method: as §1

[3] = Metabolic (microsomal) stability assay, human liver microsomes (HLM); assay type: in vitro ADME; conditions: predicted clearance as percent of liver blood flow, 1 μM
Summary of the method: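 LC-MS/MS tracked parent disappearance at 0, 5, 15, 30 and 60 min in NADPH-initiated incubations with 1 mg/mL human microsomal protein and 1 μM compound at 37°C, pH 7.5. First-order fits gave intrinsic clearance, which was scaled up and reported as % QH. NADPH-free controls were also run.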

[4] = Plasma protein binding assay (PPB), equilibrium dialysis, 10% FCS in PBS; assay type: in vitro ADME; conditions: bovine, read-out: PPB 10% FCS (% fu)
Summary of the method: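 Test compound (1-10 μmol/L) in 10% FCS in PBS was dialysed for 3-5 h at 37° C versus PBS ± dextran across a semipermeable membrane. LC-MS of both compartments after protein precipitation gave Cserum and Cbuffer, from which the unbound fraction fu was derived.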

[5] = Solubility measurement (DMSO solution method), McIlvaine buffer pH 4.5 or 6.8; assay type: physicochemical; conditions: aqueous buffer, kinetic from dmso stock, DMSO stock diluted to 250 μM, 24 h shaking at ambient temperature
Summary of the method: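 Filtrate concentration by LC-UV, calibrated to a known-concentration reference dissolved completely in acetonitrile/water (1:1). Samples came from 250 µM final dilutions of DMSO stock in pH 4.5 or 6.8 McIlvaine buffer, shaken 24 h at ambient temperature, then filtered.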

NCI-H358 cells = test: NCI-H358 CTG proliferation assay (120 h) (NSCLC, G12C); assay type: cell-based, human; conditions: Homo sapiens, assay 2, CTG, read-out: H358 (assay 2) IC50
Summary of the method: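 IC50 values derive from four-parameter nonlinear regression of CellTiter-Glo viability (RLU relative to DMSO wells) after 120 h of exposure. Cells were plated in RPMI-1640 + 10% FCS at 2000 per well (assay 1) or 200 per well (assay 2). Untreated cells were measured at compound addition as T0.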

[6] = McIlvaine buffer pH 4.5, read-out: solubility pH 4.5
[7] = McIlvaine buffer pH 6.8, read-out: solubility pH 6.8

| Structure (SMILES) | pIC50 [1] | pIC50 [2] | HLM QH [3] [%] | fraction unbound [4] | solubility at 24 h [5, 6] [µg/mL] | solubility at 24 h [5, 7] [µg/mL] | pIC50 (NCI-H358 cells) |
| --- | --- | --- | --- | --- | --- | --- | --- |
| C[C@H](Oc1cc(N2CCN(C)C3(CC3)C2)nc(-c2noc3c2CCC[C@@]32CCCc3sc(N)c(C#N)c32)n1)[C@@H]1CCCN1C [II-171] | 6.63 | 6.37 | 32 | 0.23 | > 150 | > 148 | – |
| C[C@H](Oc1cc(N2C[C@@H]3[C@@H](N)[C@@H]3C2)nc(-c2noc3c2CCC[C@@]32CCCc3sc(N)c(C#N)c32)n1)[C@@H]1CCCN1C [II-167] | 6.05 | 6.06 | <24 | 0.26 | > 153 | > 142 | – |
| C[C@H](Oc1cc(-c2ccn(C)n2)nc(-c2noc3c2CCC[C@@]32CCCc3sc(N)c(C#N)c32)n1)[C@@H]1C[C@H](F)CN1C [II-144] | 8.70 | – | 75 | 0.11 | 105 (≈ 178 µM) | < 1 | – |
| C[C@@H]1CN(c2cc(O[C@@H](C)[C@@H]3CCCN3C)nc(-c3noc4c3CCC[C@@]43CCCc4sc(N)c(C#N)c43)n2)CCN1 [II-161] | 6.04 | 6.01 | <24 | 0.37 | – | – | – |
| C[C@H](Oc1cc(-n2cc3c(n2)CCN(C)C3)nc(-c2noc3c2CCC[C@@]32CCCc3sc(N)c(C#N)c32)n1)[C@@H]1CCCN1C [II-141] | 6.87 | 6.77 | 28 | 0.6 | 123 (≈ 197 µM) | 83 (≈ 133 µM) | – |
| C[C@H](Oc1cc(N2CCN[C@@H](C)C2)nc(-c2noc3c2CCC[C@@]32CCCc3sc(N)c(C#N)c32)n1)[C@@H]1CCCN1C [II-162] | 6.28 | 6.24 | <24 | 0.69 | > 140 | > 137 | – |
| C[C@H](Oc1cc(-n2cc3c(n2)CNC3)nc(-c2noc3c2CCC[C@@]32CCCc3sc(N)c(C#N)c32)n1)[C@@H]1CCCN1C [II-168] | 7.21 | 7.59 | 62 | 0.47 | > 139 | > 128 | – |
| C[C@H](Oc1cc([C@H]2CCNC2)nc(-c2noc3c2CCC[C@@]32CCCc3sc(N)c(C#N)c32)n1)[C@@H]1CCCN1C [II-163] | 6.43 | 6.49 | – | 0.61 | > 137 | > 133 | – |
| C[C@H](Oc1cc(N2CCN(C)C3(CCOC3)C2)nc(-c2noc3c2CCC[C@@]32CCCc3sc(N)c(C#N)c32)n1)[C@@H]1C[C@@H](F)CN1C (stereo partly shown) [II-151] | 6.41 | 6.18 | 59 | 0.24 | > 161 | < 1 | – |
| C[C@H](Oc1cc(N2CC3COCC(C2)N3)nc(-c2noc3c2CCC[C@@]32CCCc3sc(N)c(C#N)c32)n1)[C@@H]1CCCN1C [II-160] | 5.76 | 5.70 | 31 | 0.53 | – | – | – |
| C[C@H](Oc1cc(-n2ccc(-c3cn([C@H]4CCOC4)nn3)n2)nc(-c2noc3c2CCC[C@@]32CCCc3sc(N)c(C#N)c32)n1)[C@@H]1CCCN1C [II-212] | 8.70 | – | <24 | 0.05 | 16 (≈ 23.1 µM) | < 1 | 9.00 |
| C[C@H](O)Cn1ncc(-c2cc(O[C@@H](C)[C@@H]3CCCN3C)nc(-c3noc4c3CCC[C@@]43CCCc4sc(N)c(C#N)c43)n2)n1 [II-134] | 7.39 | 7.55 | 34 | 0.31 | 116 (≈ 188 µM) | 105 (≈ 171 µM) | – |
| C[C@H](Oc1cc(-n2cncc3ccnc2-3)nc(-c2onc3c2CCC[C@@]32CCCc3sc(N)c(C#N)c32)n1)[C@@H]1CCCN1C [I-14] | 7.82 | 8.15 | – | 0.1 | 41 (≈ 67.5 µM) | < 1 | – |
| CC(C)[C@@H]1CN(c2cc(O[C@@H](C)[C@@H]3CCCN3C)nc(-c3noc4c3CCC[C@@]43CCCc4sc(N)c(C#N)c43)n2)CCN1 [II-166] | 6.41 | 6.37 | <24 | 0.22 | > 152 | > 147 | – |
| C[C@H]1CNCCCN1c1nc(-c2onc3c2CCC[C@@]32CCCc3sc(N)c(C#N)c32)cc(C(F)(F)F)n1 [I-15] | 6.03 | – | 38 | 0.08 | 1 (≈ 1.84 µM) | < 1 | – |
| C[C@H](Oc1cc(N2CCN(C)C3(CC3)C2)nc(-c2noc3c2CCC[C@@]32CCCc3sc(N)c(C#N)c32)n1)[C@@H]1C[C@@H](F)CN1C [II-149] | 6.48 | 6.39 | 45 | 0.17 | > 164 | < 1 | – |
| C[C@H](Oc1cc(N2CCN(C)C3(COC3)C2)nc(-c2noc3c2CCC[C@@]32CCCc3sc(N)c(C#N)c32)n1)[C@@H]1C[C@@H](F)CN1C [II-148] | 7.00 | 6.79 | 52 | 0.25 | > 146 | < 1 | – |
| CNC1CCN(c2cc(O[C@@H](C)[C@@H]3CCCN3C)nc(-c3noc4c3CCC[C@@]43CCCc4sc(N)c(C#N)c43)n2)CC1 [II-214] | 5.72 | 5.87 | <24 | 0.81 | > 121 | > 151 | – |
| C[C@H]1CNCCCN1c1cc(-c2ccn(C)n2)nc(-c2noc3c2CCC[C@@]32CCCc3sc(N)c(C#N)c32)n1 [II-140] | 5.99 | – | <24 | – | 82 (≈ 148 µM) | 8 (≈ 14.4 µM) | 6.15 |
| CO[C@H]1CCN(C)[C@@H]1[C@H](C)Oc1cc(-n2ccc(CC(=O)NC(C)C)n2)nc(-c2noc3c2CCC[C@@]32CCCc3sc(N)c(C#N)c32)n1 [II-183] | 8.70 | 8.52 | 75 | 0.04 | 113 (≈ 165 µM) | 4 (≈ 5.83 µM) | – |
| C[C@H](Oc1cc(N2C[C@H](C)N(C)[C@@H](C)C2)nc(-c2noc3c2CCC[C@@]32CCCc3sc(N)c(C#N)c32)n1)[C@@H]1CCCN1C [II-173] | 6.53 | 6.17 | <24 | 0.41 | > 144 | > 146 | – |
| CO[C@@H]1C[C@@H]([C@H](C)Oc2cc(-c3cnn(C)n3)nc(-c3onc4c3CCC[C@@]43CCCc4sc(N)c(C#N)c43)n2)N(C)C1 [I-17] | 7.40 | 7.64 | 56 | 0.24 | – | – | – |
